Measurements as given in patent US11607422B2, “Uttroside B and derivatives thereof as therapeutics for hepatocellular carcinoma” (Rajiv Gandhi Centre for Biotechnology, an Autonomous …, priority 2016, dated 2023).

Key:
[1] = tested on: caspases 8, 9 & 7 and PARP in HepG2 cells; assay: Western blot of caspase activation and PARP cleavage in HepG2 cells; format: cell-based, human
Experimental: (§1) FIGS. 3A-3F show Uttroside B induces caspase-dependent apoptosis leading to PARP cleavage in HepG2 cells while being independent of cell cycle. FIGS. 3A-3E are images of Western blots showing caspase activation in HepG2 cells. Whole-cell extracts were prepared after treating HepG2 cells with indicated concentrations of Uttroside B for 48 h, the whole cell lysate was resolved on a 15% gel and subjected to western blotting using antibodies against the caspases 8, 9 & 7 detected by ECL. HepG2 cells were treated with Uttroside B for 48 h at different concentrations and the whole cell lysate was resolved on a 10% gel, immunoblotted against anti-PARP and detected by ECL. […] HepG2 cells were treated with Uttroside B for 48 h, stained with propidium iodide and the cell cycle analysis was done using fluorescence activated cell sorter. Curcumin 25 μM (24 h) is used as positive control.
Western blot analysis. Approximately 0.5×10^6 cells were grown on 60 mm culture plates and exposed to drugs as indicated for the desired time. The cells were then scraped out, washed in ice cold 1× PBS and pelleted down at 13000 rpm for 2 min. The pelleted cells were suspended in 150 μL of ice-cold whole cell lysis buffer[(20 mMTris of pH 7.4, 250 mM NaCl, 2 mM EDTA, 0.1% Triton, 1 mM DTT (1,4-dithiothreitol), 0.5 mM PMSF, 4 mM sodium orthovanadate, aprotinin (5 mg m/L) and leupeptin (5 mg m/L)] and kept in ice for 30 min, with intermittent vortexing every 5 min. After incubation, the lysate was centrifuged at 13000 rpm for 10 min at 4° C. and the supernatant was collected. The total protein content in the lysate was estimated by Bradford's method, and was then denatured by boiling with 5× loading dye before separating the proteins by SDSpolyacrylamidegel electrophoresis (SDS-PAGE). Following electrophoresis, the polyacrylamide gel and a PVDF membrane were equilibrated with Towbins buffer (1 L, 25 mM Tris, 192 mM glycine, 20% (v/v) methanol (pH 8.3) for 15-30 min and the separated proteins were electro-transferred to PVDF membrane (Hybond-P, GE Healthcare Life science) using Bio-Rad Mini PROTEAN III wet blot apparatus at 100 V for 2 h at cold conditions. After the transfer, the membrane was rinsed with TBS-T (20 mM Tris pH 7.5, 150 mM NaCl, 0.1% Tween 20) buffer and stained with Ponceau-S to ensure uniform transfer. After washing off the Ponceau stain with TBST, the membrane was exposed to 5% fat free milk in TBST buffer for 1 h at room temperature to block the nonspecific binding of antibodies, followed by overnight incubation with the primary antibody [1:1000 dilution] in 3% BSA in TBST buffer at 4° C. […]

[2] = tested on: HCT-116; assay: MTT cell viability assay in HCT-116 cells; format: cell-based; conditions: 72 h
Experimental: FIG. 2A is a graph comparison of IC50 of Uttroside B in a panel of cancer cells of different origin. The cancer cell lines HeLa, A375, HepG2, MDA-MB-231, HL 60, A549 and HCT116 were treated with Uttroside B as indicated, incubated for 72 h and the cell viability was assessed by MTT assay. FIG. 2B is a graph showing dose dependent effect of Uttroside B in the liver cancer cell lines and in normal immortalized hepatocytes. The liver cancer cell lines HepG2, Hep3B, SKHEP-1, Huh-7 and normal hepatocytes (Chang liver), were treated with Uttroside B incubated for 72 h and the cell viability was assessed by MTT assay. FIG. 2C is a graph comparison of IC50 of Uttroside B with sorafenib. HepG2 cells were treated with Uttroside B as indicated, incubated for 72 h, and the cell viability was assessed by MTT assay. […] The clones developed were counted and plotted as a graph. Colony containing more than four cells was counted as one clone. […]
MTT [3-(4,5-dimethylthiazole-2-yl)-2,5-diphenyltetrazolium bromide] assay is a standard colorimetric assay, suitable for analyzing proliferation, viability, and cytotoxicity. […] At the end of incubation, the optical density was measured at 570 nm using ELISA plate reader (Bio-Rad). The relative cell viability in percentage was calculated as (A570 of treated samples/A570 of untreated samples)×100. […]

[3] = tested on: HepG2 cells; assay: Cell cycle analysis by flow cytometry (propidium iodide); format: cell-based, human; conditions: HepG2, 48 h, all concentrations studied
Experimental: as §1
Flow cytometry: Cell cycle analysis helps in distinguishing the distribution of a population of cells to the different stages of the cycle. Cell cycle analysis using flow cytometry was performed to investigate the cell cycle arrest induced by Uttroside B. Cell cycle analysis is performed by quantitative measurement of nuclear DNA content in a cell by staining DNA with propidium iodide. […]

[4] = HepG2, 48 h, concentration dependent

C[C@H](CC[C@@]1(O)O[C@H]2C[C@H]3[C@@H]4CC[C@H]5C[C@@H](O[C@@H]6O[C@H](CO)[C@H](O[C@@H]7O[C@H](CO)[C@@H](O)[C@H](O[C@@H]8OC[C@@H](O)[C@H](O)[C@H]8O)[C@H]7O[C@@H]7O[C@H](CO)[C@@H](O)[C@H](O)[C@H]7O)[C@H](O)[C@H]6O)CC[C@]5(C)[C@H]4CC[C@]3(C)[C@H]2[C@@H]1C)CO[C@@H]1O[C@H](CO)[C@@H](O)[C@H](O)[C@H]1O [Uttroside B]
cleavage of PARP ([1]; HepG2, 48 h): strong cleavage of the mother band to its daughter bands
cleavage of procaspase 7 [1, 4]: procaspase 7 into its active fragment (p-20) were also enhanced
cleavage of procaspase 8 [1, 4]: increase in the cleavage of procaspase 8 to its active fragments
cleavage of procaspase 9 ([1]; HepG2, Western blot): time-dependent and concentration-dependent increase in the cleavage of procaspase 9
IC50 [2]: 6 µM
effect on cell cycle [3]: did not show any significant effect on cell cycle
